# Laboratory results taken from patent US12134599B2, “Solid forms” (River 3 Renal Corp., priority 2021, dated 2024).
# Assays:
# [1] = Dynamic vapor sorption (DVS) analysis; type: physicochemical
# [2] = physchem; details: 25 °C, water, thermodynamic from solid
# Method: About 5 mg of crystalline Form E was weighed in 2 mL glass vials. 20 μL aliquots of each solvent were added to dissolve the compound at 25° C. Vortex and sonication were applied to assist dissolution. The maximum volume of each solvent added was 1 mL.
# [3] = between about 0 to about 90% relative humidity (RH) at 25° C.
"DVS total mass change [1, 3]",Compound,also measured
about 2.1 wt. %,"O=C(N[C@@H]1CCCC[C@H]1O)c1cnc(OCC(F)(F)F)c(-c2ccc(Cl)c(Cl)c2)c1 [Form 2, 5-(3,4-dichlorophenyl)-N-((1R,2R)-2-hydroxycyclohexyl)-6-(2,2,2-trifluoroethoxy)nicotinamide]",
about 1.8 wt. %,"O=C(N[C@@H]1CCCC[C@H]1O)c1cnc(OCC(F)(F)F)c(-c2ccc(Cl)c(Cl)c2)c1 [Form A, 5-(3,4-dichlorophenyl)-N-((1R,2R)-2-hydroxycyclohexyl)-6-(2,2,2-trifluoroethoxy)nicotinamide]",
about 0.3 wt. %,"O=C(N[C@@H]1CCCC[C@H]1O)c1cnc(OCC(F)(F)F)c(-c2ccc(Cl)c(Cl)c2)c1 [Form B, 5-(3,4-dichlorophenyl)-N-((1R,2R)-2-hydroxycyclohexyl)-6-(2,2,2-trifluoroethoxy)nicotinamide]",
about 20 wt. %,"O=C(N[C@@H]1CCCC[C@H]1O)c1cnc(OCC(F)(F)F)c(-c2ccc(Cl)c(Cl)c2)c1 [Form D, 5-(3,4-dichlorophenyl)-N-((1R,2R)-2-hydroxycyclohexyl)-6-(2,2,2-trifluoroethoxy)nicotinamide]",
about 0.3 wt. %,"O=C(N[C@@H]1CCCC[C@H]1O)c1cnc(OCC(F)(F)F)c(-c2ccc(Cl)c(Cl)c2)c1 [Form E, 5-(3,4-dichlorophenyl)-N-((1R,2R)-2-hydroxycyclohexyl)-6-(2,2,2-trifluoroethoxy)nicotinamide]",solubility [2]: < 5000 µg/mL
,"O=C(N[C@@H]1CCCC[C@H]1O)c1cnc(OCC(F)(F)F)c(-c2ccc(Cl)c(Cl)c2)c1 [Form H, 5-(3,4-dichlorophenyl)-N-((1R,2R)-2-hydroxycyclohexyl)-6-(2,2,2-trifluoroethoxy)nicotinamide]",DVS total mass change ([1]; between about 0 to about 70% relative humidity (RH) at 25° C.): about 2.5 wt. %; DVS total mass change ([1]; between about 70 to about 90% relative humidity (RH) at 25° C.): about 25 wt. %
about 10 wt. %,"O=C(N[C@@H]1CCCC[C@H]1O)c1cnc(OCC(F)(F)F)c(-c2ccc(Cl)c(Cl)c2)c1 [Form I, 5-(3,4-dichlorophenyl)-N-((1R,2R)-2-hydroxycyclohexyl)-6-(2,2,2-trifluoroethoxy)nicotinamide]",
